{"source": "the Kinase Knowledgebase extract (Sharma et al. 2016)", "target": "MAPK14 (human) (UniProt Q16539)", "sequence (Q16539 whole entry, looked up)": "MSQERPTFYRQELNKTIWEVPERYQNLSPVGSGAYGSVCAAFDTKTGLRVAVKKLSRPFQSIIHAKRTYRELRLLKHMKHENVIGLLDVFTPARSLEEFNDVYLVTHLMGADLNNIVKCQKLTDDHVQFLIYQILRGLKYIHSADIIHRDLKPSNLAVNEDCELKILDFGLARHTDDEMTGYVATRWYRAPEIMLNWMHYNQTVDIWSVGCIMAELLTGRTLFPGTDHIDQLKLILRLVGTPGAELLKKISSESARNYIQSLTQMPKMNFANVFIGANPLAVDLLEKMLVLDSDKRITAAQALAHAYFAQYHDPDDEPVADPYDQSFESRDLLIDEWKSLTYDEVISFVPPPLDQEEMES", "assay": "Inhibition of MAPK14 Kinase Activity"}
{"smiles": "COCCNC(=O)CNc1nc(-c2ccc(F)cc2C)c2ccc(=O)n(-c3c(F)cccc3F)c2n1", "values": [{"measurement": "IC50", "value": "< 10", "unit": "µM"}]}
{"smiles": "CSc1nc(-c2ccc(F)cc2C)c2c(n1)N(c1c(F)cccc1F)C(=O)CC2", "values": [{"measurement": "IC50", "value": "< 10", "unit": "µM"}]}
{"smiles": "Cc1cc(F)ccc1-c1nc(Nc2c[nH]c(=O)[nH]c2=O)nc2c1ccc(=O)n2-c1c(F)cccc1F", "values": [{"measurement": "IC50", "value": "< 10", "unit": "µM"}]}
{"smiles": "Cc1cc(F)ccc1-c1nc(N[C@@H](C)CO)nc2c1ccc(=O)n2-c1ccccc1C", "values": [{"measurement": "IC50", "value": "< 10", "unit": "µM"}]}
{"smiles": "COc1nc(-c2ccccc2F)c2ccc(=O)n(-c3c(F)cccc3F)c2n1", "values": [{"measurement": "IC50", "value": "< 10", "unit": "µM"}]}
{"smiles": "CCN(CC)CCNc1nc(-c2ccccc2)c2ccc(=O)n(-c3ccccc3)c2n1", "values": [{"measurement": "IC50", "value": "< 10", "unit": "µM"}]}
{"smiles": "CNc1nc(-c2ccc(F)cc2C)c2ccc(=O)n(-c3c(F)cccc3F)c2n1", "values": [{"measurement": "IC50", "value": "< 10", "unit": "µM"}]}
{"smiles": "Nc1nc(-c2ccccc2F)c2ccc(=O)n(-c3c(F)cccc3F)c2n1", "values": [{"measurement": "IC50", "value": "< 10", "unit": "µM"}]}
{"smiles": "CSc1nc(-c2ccccc2F)c2ccc(=O)n(C)c2n1", "values": [{"measurement": "IC50", "value": "< 10", "unit": "µM"}]}
{"smiles": "Cc1cc(F)ccc1-c1nc(OC(CO)CO)nc2c1ccc(=O)n2-c1c(F)cccc1F", "values": [{"measurement": "IC50", "value": "< 10", "unit": "µM"}]}
{"smiles": "Cc1cc(F)ccc1-c1nc(NCC(C)(C)C)nc2c1ccc(=O)n2-c1ccccc1F", "values": [{"measurement": "IC50", "value": "< 10", "unit": "µM"}]}
{"smiles": "Cc1cc(F)ccc1-c1nc(NC(C)(C)CO)nc2c1ccc(=O)n2-c1ccccc1C", "values": [{"measurement": "IC50", "value": "< 10", "unit": "µM"}]}
{"smiles": "Cc1cc(F)ccc1-c1nc(NCCCS(C)(=O)=O)nc2c1ccc(=O)n2-c1c(F)cccc1F", "values": [{"measurement": "IC50", "value": "< 10", "unit": "µM"}]}
{"smiles": "Cc1cc(F)ccc1-c1nc(NC[C@H](C)O)nc2c1ccc(=O)n2-c1c(F)cccc1F", "values": [{"measurement": "IC50", "value": "< 10", "unit": "µM"}]}
{"smiles": "CSCCCOc1nc(-c2ccc(F)cc2C)c2ccc(=O)n(-c3c(F)cccc3F)c2n1", "values": [{"measurement": "IC50", "value": "< 10", "unit": "µM"}]}
{"smiles": "CCN(CC)CCNc1nc(-c2ccccc2Cl)c2ccc(=O)n(-c3ccccc3Cl)c2n1", "values": [{"measurement": "IC50", "value": "< 10", "unit": "µM"}]}
{"smiles": "Cc1cc(F)ccc1-c1nc(NCc2ncc[nH]2)nc2c1ccc(=O)n2-c1c(F)cccc1F", "values": [{"measurement": "IC50", "value": "< 10", "unit": "µM"}]}
{"smiles": "Cc1cc(F)ccc1-c1nc(NCC(=O)NCCO)nc2c1ccc(=O)n2-c1c(F)cccc1F", "values": [{"measurement": "IC50", "value": "< 10", "unit": "µM"}]}
{"smiles": "CCC(CC)n1c(=O)ccc2c(-c3ccccc3Cl)nc(N[C@H](C)CO)nc21", "values": [{"measurement": "IC50", "value": "< 10", "unit": "µM"}]}
{"smiles": "Cc1cc(F)ccc1-c1nc(N[C@H]2CC[C@H](O)CC2)nc2c1ccc(=O)n2-c1ccccc1C", "values": [{"measurement": "IC50", "value": "< 10", "unit": "µM"}]}
{"smiles": "CSCCCNc1nc(-c2ccc(F)cc2C)c2ccc(=O)n(-c3c(F)cccc3F)c2n1", "values": [{"measurement": "IC50", "value": "< 10", "unit": "µM"}]}
{"smiles": "Cc1cc(F)ccc1-c1nc(NCC(F)(F)F)nc2c1ccc(=O)n2-c1c(F)cccc1F", "values": [{"measurement": "IC50", "value": "< 10", "unit": "µM"}]}
{"smiles": "Cc1cc(F)ccc1-c1nc(NCCNS(C)(=O)=O)nc2c1ccc(=O)n2-c1c(F)cccc1F", "values": [{"measurement": "IC50", "value": "< 10", "unit": "µM"}]}
{"smiles": "Cc1cc(F)ccc1-c1nc(NCCO)nc2c1ccc(=O)n2-c1c(C)cccc1C", "values": [{"measurement": "IC50", "value": "< 10", "unit": "µM"}]}
{"smiles": "Cc1cc(F)ccc1-c1nc(NC(CO)CO)nc2c1ccc(=O)n2-c1ccccc1C", "values": [{"measurement": "IC50", "value": "< 10", "unit": "µM"}]}
{"smiles": "COCCNc1nc(-c2ccc(F)cc2C)c2ccc(=O)n(-c3c(F)cccc3F)c2n1", "values": [{"measurement": "IC50", "value": "< 10", "unit": "µM"}]}
{"smiles": "CSc1nc(-c2ccccc2F)c2ccc(=O)n(-c3ccccc3Cl)c2n1", "values": [{"measurement": "IC50", "value": "< 10", "unit": "µM"}]}
{"smiles": "CCOc1nc(-c2ccc(F)cc2C)c2ccc(=O)n(C3CCCCC3)c2n1", "values": [{"measurement": "IC50", "value": "< 10", "unit": "µM"}]}
{"smiles": "CSc1nc(-c2ccc(F)cc2C)c2ccc(=O)n(-c3ccccc3F)c2n1", "values": [{"measurement": "IC50", "value": "< 10", "unit": "µM"}]}
{"smiles": "Cc1cc(F)ccc1-c1nc(N(C)S(C)(=O)=O)nc2c1ccc(=O)n2C(C)C", "values": [{"measurement": "IC50", "value": "< 10", "unit": "µM"}]}
{"smiles": "Cc1cc(F)ccc1-c1nc(N[C@@H](C)CO)nc2c1ccc(=O)n2-c1ccccc1F", "values": [{"measurement": "IC50", "value": "< 10", "unit": "µM"}]}
{"smiles": "CNC(=O)NCCNc1nc(-c2ccc(F)cc2C)c2ccc(=O)n(-c3c(F)cccc3F)c2n1", "values": [{"measurement": "IC50", "value": "< 10", "unit": "µM"}]}
{"smiles": "Cc1cc(F)ccc1-c1nc(O)nc2c1ccc(=O)n2-c1c(F)cccc1F", "values": [{"measurement": "IC50", "value": "< 10", "unit": "µM"}]}
{"smiles": "Cc1cc(F)ccc1-c1nc(NC(C)(CO)CO)nc2c1ccc(=O)n2-c1c(F)cccc1F", "values": [{"measurement": "IC50", "value": "< 10", "unit": "µM"}]}
{"smiles": "COC(=O)CNc1nc(-c2ccc(F)cc2C)c2ccc(=O)n(-c3c(F)cccc3F)c2n1", "values": [{"measurement": "IC50", "value": "< 10", "unit": "µM"}]}
{"smiles": "O=C(O)CNc1nc(-c2ccccc2Cl)c2ccc(=O)n(-c3ccccc3Cl)c2n1", "values": [{"measurement": "IC50", "value": "< 10", "unit": "µM"}]}
{"smiles": "CCNC(=O)CNc1nc(-c2ccc(F)cc2C)c2ccc(=O)n(-c3c(F)cccc3F)c2n1", "values": [{"measurement": "IC50", "value": "< 10", "unit": "µM"}]}
{"smiles": "Cc1cc(F)ccc1-c1nc(NCC2CCS(=O)(=O)C2)nc2c1ccc(=O)n2-c1c(F)cccc1F", "note": "(stereo not drawn)", "values": [{"measurement": "IC50", "value": "< 10", "unit": "µM"}]}
{"smiles": "Cc1cc(F)ccc1-c1nc(N(C(=O)C2CC2)C(=O)C2CC2)nc2c1ccc(=O)n2-c1c(F)cccc1F", "values": [{"measurement": "IC50", "value": "< 10", "unit": "µM"}]}
{"smiles": "Cc1cc(F)ccc1-c1nc(NCCCN2CCCC2=O)nc2c1ccc(=O)n2-c1c(F)cccc1F", "values": [{"measurement": "IC50", "value": "< 10", "unit": "µM"}]}
{"smiles": "Cc1cc(F)ccc1-c1nc(NC(C)(C)CO)nc2c1ccc(=O)n2-c1ccccc1F", "values": [{"measurement": "IC50", "value": "< 10", "unit": "µM"}]}
{"smiles": "CSc1nc(NC2CCCCC2)c(C=O)c(-c2ccc(F)cc2C)n1", "values": [{"measurement": "IC50", "value": "< 10", "unit": "µM"}]}
{"smiles": "O=c1ccc2c(-c3ccccc3F)nc(NC(CO)CO)nc2n1-c1c(F)cccc1F", "values": [{"measurement": "IC50", "value": "< 10", "unit": "µM"}]}
{"smiles": "CSc1nc(-c2ccc(F)cc2C)c2ccc(=O)n(-c3c(C)cccc3C)c2n1", "values": [{"measurement": "IC50", "value": "< 10", "unit": "µM"}]}
{"smiles": "Cc1cc(F)ccc1-c1nc(NCCO)nc2c1ccc(=O)n2-c1ccccc1C", "values": [{"measurement": "IC50", "value": "< 10", "unit": "µM"}]}
{"smiles": "Cc1cc(F)ccc1-c1nc(NC2CCOCC2)nc2c1ccc(=O)n2-c1ccccc1C", "values": [{"measurement": "IC50", "value": "< 10", "unit": "µM"}]}
{"smiles": "CCC(C)n1c(=O)ccc2c(-c3ccccc3F)nc(SC)nc21", "note": "(stereo not drawn)", "values": [{"measurement": "IC50", "value": "< 10", "unit": "µM"}]}
{"smiles": "Cc1cc(F)ccc1-c1nc(NCCNC(=O)OC(C)(C)C)nc2c1ccc(=O)n2-c1c(F)cccc1F", "values": [{"measurement": "IC50", "value": "< 10", "unit": "µM"}]}
{"smiles": "CSc1nc(-c2ccccc2F)c2ccc(=O)[nH]c2n1", "values": [{"measurement": "IC50", "value": "< 10", "unit": "µM"}]}
{"smiles": "Cc1cc(F)ccc1-c1nc(NC(C)(CO)CO)nc2c1ccc(=O)n2-c1ccccc1F", "values": [{"measurement": "IC50", "value": "< 10", "unit": "µM"}]}
{"smiles": "CCC(C)n1c(=O)ccc2c(-c3ccc(F)cc3C)nc(NC(CO)CO)nc21", "note": "(stereo not drawn)", "values": [{"measurement": "IC50", "value": "< 10", "unit": "µM"}]}
{"smiles": "Cc1cc(F)ccc1-c1nc(NCCNC(=O)Nc2ccccc2)nc2c1ccc(=O)n2-c1c(F)cccc1F", "values": [{"measurement": "IC50", "value": "< 10", "unit": "µM"}]}
{"smiles": "Cc1cc(F)ccc1-c1nc(N(C)S(C)(=O)=O)nc2c1ccc(=O)n2-c1c(F)cccc1F", "values": [{"measurement": "IC50", "value": "< 10", "unit": "µM"}]}
